Three molecules from article PMC8453635, “Piperidine Azasugars Bearing Lipophilic Chains: Stereoselective Synthesis and Biological Activity as Inhibitors of Glucocerebrosidase (GCase)” (The Journal of Organic Chemistry, 2021) can be followed below.

The target in this assay is T1, α-galactosidase (Homo sapiens, UniProt P06280).
T1 construct: from leukocytes isolated from healthy donors (controls); from tissue; host or cells: leukocytes from healthy donors, sonicated homogenate
T1 sequence (P06280 32-429): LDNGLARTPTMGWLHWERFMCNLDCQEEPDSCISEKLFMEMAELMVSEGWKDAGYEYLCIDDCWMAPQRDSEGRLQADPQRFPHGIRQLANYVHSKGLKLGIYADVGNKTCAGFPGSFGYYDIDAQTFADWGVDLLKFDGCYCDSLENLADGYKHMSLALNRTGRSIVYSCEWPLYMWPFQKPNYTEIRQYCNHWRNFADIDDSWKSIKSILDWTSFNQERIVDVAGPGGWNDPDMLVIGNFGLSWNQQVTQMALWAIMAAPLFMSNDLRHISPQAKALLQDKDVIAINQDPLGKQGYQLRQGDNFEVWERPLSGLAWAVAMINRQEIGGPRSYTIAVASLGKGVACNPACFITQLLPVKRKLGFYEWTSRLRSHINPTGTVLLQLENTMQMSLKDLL
The experiment in a line: Human lysosomal glycosidase selectivity screening (leukocyte homogenate). Format: biochemical. The note with it: 1 mM, read-out: percentage of inhibition, α-Gal. The method, then:
In order to avoid undesired inhibitory side effects of a potential new drug, it has to be selective for a given target. The selectivity of the newly synthesized compounds 14, 15, and 33·HCl toward GCase was then investigated, evaluating their inhibition at 1 mM concentration toward six other lysosomal glycosidases (namely, α-and β-mannosidases, α- and β-galactosidases, α-fucosidase, and α-glucosidase) in cell homogenates (leucocytes or lymphocytes) isolated from healthy donors. […] Indeed, only moderate inhibitory activity (ca. 50%) was found toward human β-galactosidase for both piperidines 14 and 15, while negligible inhibitory activity was detected in all other cases.
The effect of 1 mM concentration of 14, 15, and 33·HCl was assayed toward six lysosomal glycosidases other than GCase, namely, α-mannosidase, β-mannosidase, α-galactosidase, β-galactosidase, α-fucosidase from leukocytes isolated from healthy donors (controls) and α-glucosidase from lymphocytes isolated from healthy donors’ flesh blood (controls). […]
μL, Sigma –Aldrich) in acetate buffer (0.1 M, pH 4.5) containing sodium azide (0.02%) were incubated at 37 °C for 1 h. Th e reaction was stopped by addition of sodium carbonate (200 μL; 0.5M, pH 10.7) containing Triton X -100 (0.0025 %), and the fluorescence 4 -methylumbelliferone released by α-galactosidase activity was measured in SpectraMax M2 microplate reader ( λex=365 nm, λem=435 nm; Molecular Devices). […]
α-Fucosidase activity was measured in a flat -bottomed 96 -well plate. […]
α-Glucosidase activity was measured in a flat –bottomed 96 well plate. […] The reaction was stopped by the addition of a solution of sodium carbonate (200 µL; 0.5M, pH 10.7) containing Triton X -100 (0.0025 %), and the fluorescence of 4 -methylumbelliferone released by α-glucosidase activity was measured in […]
Figure S 48. […] The corresponding calculated percentage of inhibition is indicated above each bar.
In general, inhibition refers to how much of the control response was suppressed. For `CCCCCCCC[C@@H]1[C@@H](O)[C@H](O)[C@H](O)CN1CCCCCCCC` [compound 15, (2R,3R,4R,5R)-1,2-Dioctylpiperidine-3,4,5-triol], the inhibition at 1000 µM was 8%. With `CCCCCCCC[C@@H]1[C@@H](O)[C@H](O)[C@H](O)CN1C(CCCCCCC)CCCCCCC.Cl` [compound 33·HCl, (2R,3R,4R,5R)-2-Octyl-1-(pentadecan-8-yl)-piperidine-3,4,5-triol Hydrochloride], the inhibition at 1000 µM was found to be 1%.

Consider `CCCCCCCC[C@H]1[C@@H](O)[C@H](O)[C@H](O)CN1CCCCCCCC` [compound 14, (2S,3R,4R,5R)-1,2-Dioctylpiperidine-3,4,5-triol], for which the inhibition at 1000 µM was determined as 9%.
